Data from a melting point compilation (Tetko et al.; mined from patent text by program, amines drawn as free bases though some values may be those of a salt).

| melting point [°C] | Structure (SMILES) |
| --- | --- |
| 328 to 334 | CCNC(=O)Nc1nc2cc(-c3cnc(N(C)C)nc3)cc(C(=O)NCC)n2n1 |
| 73 to 74 | CC(=O)OCC1COc2c(ccc(F)c2F)N1 (stereo not drawn) |
| 125 to 127 | CNS(=O)(=O)CC(=O)c1cc(OC)c(OC)c(OC)c1N |
| 129 to 131 | COc1ccc(C(=O)N2CC[C@@H](O)C2=O)cc1O |
| 141 to 145 | Cc1nc(C)nc(NC(=O)NS(=O)(=O)c2ccccc2C)n1 |
| 165 to 166 | CC(C)C(=O)O[C@H](C)[C@@H](C)OC(=O)[C@@H](N)Cc1ccc(O)c(O)c1 |
| 147 | CCCOc1ccc(-c2ccc(N)nn2)cc1OC |
| 115 to 121 | CCC(O)c1cc(C2(c3cccc(-c4cccnc4F)c3)N=C(N)N(C)C2=O)cn1CC (stereo not drawn) |
| 182 | CC(=O)c1ccc(OCn2cc(Cl)cnc2=O)cc1 |
| 200 to 201 | COc1ccc(C(=O)Nc2ccccc2)cc1Oc1ccccc1 |
| 215 to 216 | Cc1ccc2[nH]c(=O)cc(CCCl)c2c1 |
| 114 to 115 | COc1nc(C)c(C(C)=O)cc1NC(=S)N1CCN(c2cccc(O)c2)CC1 |
| 116 | CCOP(=O)(Cc1cccc(-c2nc(=O)c3ccccc3s2)n1)OCC |
| 184 to 185 | CC(C)Oc1ccc(-n2c(C(=O)NCCNC(=O)OC(C)(C)C)c(Cl)c3cc(Oc4ccc(C(F)(F)F)cn4)ccc32)cc1 |
| 108 | CCc1cccc(CC(=O)O)c1OCCCn1cc(C(=O)NCc2ccc(C(F)(F)F)cc2)c(OC(C)C)n1 |
| 86 to 90 | COc1ccc(C(C#Cc2ccccc2)Cc2noc(C)n2)cc1OC1CCCC1 (racemic) |
| 202 to 206 | Cc1nc2cc(NC(=O)c3ccccc3O)ccc2o1 |
| 288 to 289 | O=C(NCc1ccc(Cl)cc1)c1cnc2ccc(CO)cc2c1O |

The next lines start with the molecule.

| Structure (SMILES) | melting point [°C] |
| --- | --- |
| CC(Oc1ncn(-c2cccc(C(F)(F)F)c2)n1)C(=O)O (stereo not drawn) | 206 to 208 |
| CCCCCCCCCCCCNC(=O)c1cc(Br)c(OCCn2cnnn2)c(-c2cccc(C(F)(F)F)c2)c1 | 91.5 to 92.6 |
| CCCCCCC1(CCCCCC)c2cc(C#N)ccc2-c2ccc(C#N)cc21 | 116 to 118 |
| O[C@H]1c2cc(Oc3ccccn3)ccc2OC[C@H]1Cc1cccnc1 (relative stereo) | 67 to 68 |
| CN(C(=O)N[C@@H](Cc1ccc(Nc2nccc3ccncc23)cc1)C(=O)O)c1ccccc1Cc1ccccc1 | 157 |
| Cc1c(Cl)sn(-c2ccccc2)c1=O | 60 to 68 |
| C[C@H]1[C@@H](CO)CCN1c1ccc(C#N)c2sccc12 | 109 to 111 |
| CC(=O)N1CCC(C(=O)N(CCCN2CCC(Cc3ccccc3)CC2)c2ccc(C)c(Cl)c2)CC1 | 96 to 99 |
| N#CC(C=N)CC(=O)c1ccccc1 (stereo not drawn) | 89 to 90 |
| COc1cccc2c1OC(CN1CC=C(c3c[nH]c4cc(F)ccc34)CC1)CO2 (stereo not drawn) | 184 to 185 |
| Cn1c(COc2ccc(CC3SC(=O)NC3=O)cc2)nc2ccc(Oc3ccc4cccc(NC(=O)Nc5ccc(F)cc5F)c4c3)cc21 (stereo not drawn) | 222 to 224 |
| CCCC(O)C1(c2onc(-c3ccc(O)cc3)c2-c2ccccc2)CC1 (stereo not drawn) | 139 to 140 |
| c1ccc(CSc2ncnc3ccccc23)nc1 | 64.9 to 66.2 |
| COc1ccc(C2=NN(Cc3ccccc3)C(=O)[C@H]3CCCC[C@@H]23)cc1OC1CCCC1 (relative stereo) | 91 to 92 |
| Cc1c(SCCCSc2ccncc2)ccnc1CSc1ccncc1 | 116 to 118 |
| O=C(O)c1cc(-c2ccccc2)c2c(n1)OCCN(Cc1cc(C(F)(F)F)cc(C(F)(F)F)c1)C2=O | 119 to 123 |
| CCCCC1CC(=O)C2(C)CCC3=C4CCC(=O)C=C4CCC3C12 (stereo not drawn) | 159 to 161 |
| CN1CCN(C2=Nc3cc(Cl)ccc3Nc3ccsc32)CC1 | 225 to 226 |
| CC1C(=O)NC(C)(C)N1C(=O)CNC(=O)CN1CC(O)CC1=O (stereo not drawn) | 218 to 220 |
| CN1CCN(C2=Cc3cc(Cl)ccc3C(=CC#N)c3ccccc32)CC1 | 196 to 198 |
